# Patent publication US12490760B2, “Compound and flavor-imparting composition using same” (T. HASEGAWA CO., LTD., priority 2021, dated 2025)
# Key:
# [1] = Stability in sugar-acid solution, quantified by GC/MS internal standard method; type: physicochemical; details: 0.1% in sugar-acid solution (7% granulated sugar, 0.12% citric acid); room temperature (25° C.), 8 weeks, light shielding
# Protocol: A stability of the present compound was evaluated by the following procedure. An aqueous solution including 7% granulated sugar and 0.12% citric acid (hereinafter, which may be referred to as a sugar-acid solution) was prepared. To this sugar-acid solution, the present invention product 1-1 was added so that the concentration was 0.1% to obtain the present invention product 3-1. As a comparative reference to the present compound, citral was added to a separately prepared sugar-acid solution so that the concentration was 0.1% to obtain the comparative product 3-1. Then, the present invention product 3-1 and the comparative product 3-1 were stored at room temperature (25° C.) for 8 weeks under light shielding. On the present invention product 3-1 and the comparative product 3-1, the present compound and citral were quantitatively analyzed by the internal standard method by using 2-chlorophenol as an internal standard substance under the following GC analysis conditions. The measurements were performed by using a GC/MS (apparatus name: GC 7890A/MSD 5975C, manufactured by Agilent Technologies Japan, Ltd.). […]
# [2] = Aroma properties: 1% ethanol solutions sniffed by panelists; details: 1% ethanol solution; sniffed by 5 well-trained panelists; representative comments
# Protocol: An aroma of the present compound was evaluated by the following procedure. A 1% ethanol solution of the present invention product 1-1 was prepared and used as the present invention product 2-1. As a comparative reference to the present compound, a 1% ethanol solution of citral was prepared and used as the comparative product 2-1, and a 1% ethanol solution of 4,8-dimethylnona-3,7-dien-2-one was prepared and used as the comparative product 2-2. 5 well-trained panelists having 10 years or more of experience sniffed at the present invention product 2-1 and the comparative products 2-1 and 2-2, and commented on felt aromas.
# [3] = Detecting threshold concentration; details: compared with citral
concentration after storage relative to the initial concentration [1],Structure (SMILES),Comment (felt aromas) [2],detecting threshold concentration [3]
completely disappeared,"CC(C)=CCCC(C)=CC=O [citral, reference compound]",,
90%,"C=C(CCC=C(C)C)CC(C)=O [present compound, 8-methyl-4-methylenenona-7-en-2-one]",does not have the aspect of floral aromas,the same level as that of citral
